Measurements as given in ChEMBL document CHEMBL1201862, “PubChem BioAssay data set” (2004).
Where “and” joins values, the source holds several entries; their conditions need not be identical. Identical values can stand only once. One block for each compound: values may come before it. Calls of active or inactive are those of the source.

Legend:
Type in all cases: functional
[1] = biological target: Sphingosine 1-phosphate receptor 2 (Homo sapiens, UniProt O95136); test: Dose Response Cell Based Assay for Antagonists of the S1P2 Receptor. [Related pubchem assays: 856, 736 ]
[2] = biological target: E3 ubiquitin-protein ligase Mdm2 (Homo sapiens, UniProt Q00987); test: MDM2-luc reporter signal enhancers, multi-concentration potency testing, MDM2 ubiquitin-protein ligase inhibitor program, whole-cell format, luminescence detection, 384-well microplate (AID 1394);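 note: MDM2 E3 inhibitors raise luminescence so EC50 is for signal enhancement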
[3] = biological target: T1, Tyrosine-protein phosphatase non-receptor type 7 (Homo sapiens, UniProt P35236); test: HePTP tyrosine phosphatase activity blockers – biochemical, absorbance, leukemia target, primary screen (AID 521)
T1 sequence (P35236 whole entry): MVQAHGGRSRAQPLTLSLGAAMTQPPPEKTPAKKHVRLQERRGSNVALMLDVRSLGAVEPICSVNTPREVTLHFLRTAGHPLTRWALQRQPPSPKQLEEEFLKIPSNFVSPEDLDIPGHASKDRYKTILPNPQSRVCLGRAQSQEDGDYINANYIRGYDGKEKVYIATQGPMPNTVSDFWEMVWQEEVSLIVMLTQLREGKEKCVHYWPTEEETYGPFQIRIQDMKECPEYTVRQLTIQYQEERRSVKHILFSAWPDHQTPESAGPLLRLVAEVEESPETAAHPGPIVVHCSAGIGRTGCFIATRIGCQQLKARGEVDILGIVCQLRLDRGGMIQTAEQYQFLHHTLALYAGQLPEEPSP

[4] = biological target: Diphosphomevalonate decarboxylase (Streptococcus pneumoniae serotype 2 (strain D39 / NCTC 7466), UniProt Q9FD53); test: diphosphomevalonate decarboxylase inhibitor confirmation – biochemical, cuvette format, coupled NADH fluorescence (AID 1028)
Diphosphomevalonate decarboxylase, sequence (Q9FD53 whole entry): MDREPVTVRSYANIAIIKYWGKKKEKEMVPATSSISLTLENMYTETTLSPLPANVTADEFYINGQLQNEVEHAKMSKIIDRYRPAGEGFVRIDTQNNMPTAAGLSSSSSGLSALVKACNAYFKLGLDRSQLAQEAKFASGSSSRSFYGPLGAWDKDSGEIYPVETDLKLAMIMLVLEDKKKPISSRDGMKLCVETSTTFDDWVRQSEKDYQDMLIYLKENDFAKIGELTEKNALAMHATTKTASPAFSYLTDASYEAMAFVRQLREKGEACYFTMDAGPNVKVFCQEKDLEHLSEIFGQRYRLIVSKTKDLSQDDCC

Sphingosine 1-phosphate receptor 2, sequence (O95136 whole entry): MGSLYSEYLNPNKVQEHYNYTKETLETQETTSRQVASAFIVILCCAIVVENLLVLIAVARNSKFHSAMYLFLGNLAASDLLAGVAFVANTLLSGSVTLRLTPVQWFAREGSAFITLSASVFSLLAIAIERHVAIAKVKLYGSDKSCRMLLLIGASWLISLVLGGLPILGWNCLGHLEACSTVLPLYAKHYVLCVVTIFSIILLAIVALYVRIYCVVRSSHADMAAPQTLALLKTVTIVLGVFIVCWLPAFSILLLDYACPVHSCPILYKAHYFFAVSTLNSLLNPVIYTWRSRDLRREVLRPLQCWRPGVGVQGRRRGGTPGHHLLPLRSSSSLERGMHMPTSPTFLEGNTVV
E3 ubiquitin-protein ligase Mdm2, sequence (Q00987 whole entry): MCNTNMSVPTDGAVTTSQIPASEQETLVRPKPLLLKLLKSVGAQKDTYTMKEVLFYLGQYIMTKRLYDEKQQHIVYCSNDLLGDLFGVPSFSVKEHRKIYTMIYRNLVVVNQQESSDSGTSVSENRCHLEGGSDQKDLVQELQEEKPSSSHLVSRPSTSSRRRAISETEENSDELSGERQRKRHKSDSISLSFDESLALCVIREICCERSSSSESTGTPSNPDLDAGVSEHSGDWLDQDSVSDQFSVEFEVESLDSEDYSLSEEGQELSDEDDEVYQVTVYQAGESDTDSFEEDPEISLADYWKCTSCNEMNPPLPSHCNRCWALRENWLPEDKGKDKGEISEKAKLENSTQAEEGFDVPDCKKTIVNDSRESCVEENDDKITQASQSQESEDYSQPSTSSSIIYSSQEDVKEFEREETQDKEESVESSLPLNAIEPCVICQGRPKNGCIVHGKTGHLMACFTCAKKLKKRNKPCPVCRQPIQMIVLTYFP

IC50 [1]: 2.73 µM (active) and 2.06 µM (active)
Structure (SMILES): O=C(Nc1ccc(F)cc1)c1sc2cc(C(F)(F)F)cnc2c1-c1cccs1

EC50 [2]: 13.3 µM (not active)
Structure (SMILES): Cc1nn(-c2nnc(NCc3ccccc3)nn2)c(C)c1Br

IC50 [3]: 4.15 µM (active)
Structure (SMILES): O=C(CCSCCC(=O)NCc1ccco1)NCc1ccco1

Structure (SMILES): O=C(NCCN1CCCC1)c1ccc(-n2sc3ccccc3c2=O)cc1
IC50 [4]: 33 µM (active)
